From patent US20020137929A1, “1 - (3-heterocyclylphenyl) isothiourea, -isourea, -guanidine and -amidine herbicidal agents” (Intellectual Property Department, BASF Aktiengesellschaft, priority 1998, published 2002)

Columns and labels:
CYPSE (Flatsedge) = test: Preemergence weed control under flooded paddy conditions; format: in vivo, Cyperus serotinus; conditions: rated 3-4 weeks after treatment
Method in brief: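 First, seeds or propagules go into the top 0.5 cm of silt loam; next, water is held 1.5 to 3 cm over the soil; then compound (50/50 acetone/water) is pipetted into it at about 0.0313 to 0.500 kg/ha; finally plants are rated visually 0-9 after three to four weeks.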

[1] = tested on: ECHORC (Watergrass (Calif.)); test: as above; format: in vivo, Echinochloa oryzoides; conditions: rated 3-4 weeks after treatment
Method in brief: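 Flooded-pot preemergence screen with silt loam and seeds in the upper 0.5 cm. Dose about 0.0313 to 0.500 kg/ha, delivered into flood water; visual 0-9 score after 3 to 4 weeks.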

[2] = tested on: CHEAL (Lambsquarters, Common); test: Preemergence herbicidal evaluation; format: in vivo, Chenopodium album; conditions: rated 4-5 weeks after treatment
Method in brief: (§1)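 Rating at 4–5 wk post-spray on a 0–9 visual scale vs control. Application: aqueous acetone, ~0.0156–0.500 kg/ha, to soil surface after seeding, preemergence.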

ORYSAT (Rice, Tebonnet) [3] = test: Rice tolerance to post-transplant applications, flooded paddy conditions (Table IV); format: in vivo, Oryza sativa, (L.) Tebonnet
Method in brief: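 Flood-water application, about 0.0313–0.500 kg/ha a.i. in aqueous/acetone 50/50 v/v; water depth 1.5–3 cm throughout. Weeds 3–5 cm, rice 1.5–2.5 leaf. Greenhouse; 0–9 visual rating vs control at 3–4 wk.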

ORYSAT (Rice, Tebonnet) [4] = test: Preemergence herbicidal evaluation; format: in vivo, Oryza sativa, (L.) Tebonnet; conditions: rated 4-5 weeks after treatment
Method in brief: as §1

ORYSAT (Rice, Tebonnet) [5] = test: Rice tolerance to post-transplant applications, flooded paddy conditions (Table III); format: in vivo, Oryza sativa, (L.) Tebonnet
Method in brief: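 Two ten-day-old Tebonnet seedlings transplanted into flooded silt loam (water 1.5 to 3 cm above soil); three days later the water surface was treated with compound in aqueous/acetone 50/50 at about 0.0313 to 0.500 kg/ha. Visual 0-9 injury rating versus control after three to four weeks in greenhouse.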

MOOVA (Monochoria) = test: Postemergence weed control under flooded paddy conditions; format: in vivo, Monochoria vaginalis; conditions: postemergence weeds, 3-4 weeks after treatment
Method in brief: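 Weeds 3 to 5 cm tall and rice seedlings at the 1.5 to 2.5 leaf stage were flooded, with water held 1.5 to 3 cm above the soil. Compounds in 50/50 v/v aqueous/acetone went into the flood water at about 0.0313 to 0.500 kg/ha. Visual 0-9 ratings versus control were made 3 to 4 weeks later.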

ECHCG (Barnyardgrass) = test: Postemergence herbicidal evaluation; format: in vivo, Echinochloa crus-galli
Method in brief: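 Two-week seedlings sprayed postemergence at 40 psi; formulation: 1:1 acetone/water, 0.5% TWEEN 20; application ≈0.0156–0.500 kg/ha. Greenhouse grow-out, then 0–9 visual scoring at 4–5 weeks.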

[6] = rate 0.0313 kg/ha, flooded paddy, post-transplant rice, 3-4 weeks after treatment
[7] = rate 0.0625 kg/ha, flooded paddy, post-transplant rice, 3-4 weeks after treatment
[8] = rate 0.1250 kg/ha, flooded paddy, post-transplant rice, 3-4 weeks after treatment
[9] = rate 0.2500 kg/ha, flooded paddy, post-transplant rice, 3-4 weeks after treatment
[10] = 0.0313 kg/ha, post-transplant rice, flooded paddy, rated 3-4 weeks after treatment
[11] = 0.0625 kg/ha, post-transplant rice, flooded paddy, rated 3-4 weeks after treatment
[12] = 0.1250 kg/ha, post-transplant rice, flooded paddy, rated 3-4 weeks after treatment
[13] = 0.2500 kg/ha, post-transplant rice, flooded paddy, rated 3-4 weeks after treatment

CCOC(=O)CN1C(=O)C[S+]([O-])/C1=N/c1cc(-n2c(=O)cc(C(F)(F)F)n(C)c2=O)c(F)cc1Cl (stereo not drawn) [Compound 45, 2-{{2-Chloro-5-[3,6-dihydro-3-methyl-2,6-dioxo-4-(trifluoromethyl)-1(2H)-pyrimidinyl]-4-fluoro-phenyl}imino}-4-oxo-3-thiazolidineacetic acid, ethyl ester, 1-oxide]
7.0: Herbicidal rating ECHORC ([1]; 0.1250 kg/ha) | Herbicidal rating ECHORC ([1]; 0.2500 kg/ha) | Herbicidal rating MOOVA (MOOVA (Monochoria); rate 0.0313 kg/ha) | Herbicidal rating MOOVA (MOOVA (Monochoria); rate 0.0625 kg/ha)
0.0: Herbicidal rating CYPSE (CYPSE (Flatsedge); 0.0313 kg/ha) | Herbicidal rating CYPSE (CYPSE (Flatsedge); 0.0625 kg/ha) | Herbicidal rating CYPSE (CYPSE (Flatsedge); 0.2500 kg/ha) | Preemergence herbicidal rating ORYSAT (ORYSAT (Rice, Tebonnet) [4]; rate 0.0156 kg/ha) | Preemergence herbicidal rating ORYSAT (ORYSAT (Rice, Tebonnet) [4]; rate 0.0313 kg/ha) | Preemergence herbicidal rating ORYSAT (ORYSAT (Rice, Tebonnet) [4]; rate 0.0625 kg/ha) | Preemergence herbicidal rating ORYSAT (ORYSAT (Rice, Tebonnet) [4]; rate 0.1250 kg/ha) | Preemergence herbicidal rating ORYSAT (ORYSAT (Rice, Tebonnet) [4]; rate 0.2500 kg/ha) | Postemergence herbicidal rating ECHCG (ECHCG (Barnyardgrass); Rate 0.0156 kg/ha) | Postemergence herbicidal rating ECHCG (ECHCG (Barnyardgrass); Rate 0.0313 kg/ha) | Postemergence herbicidal rating ECHCG (ECHCG (Barnyardgrass); Rate 0.0625 kg/ha)
2.0: Herbicidal rating ORYSAT (rice tolerance) (ORYSAT (Rice, Tebonnet) [3]; [7]) | Herbicidal rating ORYSAT (rice tolerance) (ORYSAT (Rice, Tebonnet) [3]; [8]) | Herbicidal rating ORYSAT (rice tolerance) (ORYSAT (Rice, Tebonnet) [5]; [11]) | Herbicidal rating ORYSAT (rice tolerance) (ORYSAT (Rice, Tebonnet) [5]; [12])
9.0: Preemergence herbicidal rating CHEAL ([2]; rate 0.0156 kg/ha) | Preemergence herbicidal rating CHEAL ([2]; rate 0.0313 kg/ha) | Preemergence herbicidal rating CHEAL ([2]; rate 0.0625 kg/ha) | Preemergence herbicidal rating CHEAL ([2]; rate 0.1250 kg/ha) | Preemergence herbicidal rating CHEAL ([2]; rate 0.2500 kg/ha) | Herbicidal rating MOOVA (MOOVA (Monochoria); rate 0.1250 kg/ha) | Herbicidal rating MOOVA (MOOVA (Monochoria); rate 0.2500 kg/ha)
4.0: Herbicidal rating ECHORC ([1]; 0.0625 kg/ha)
3.0: Herbicidal rating ECHORC ([1]; 0.0313 kg/ha) | Herbicidal rating ORYSAT (rice tolerance) (ORYSAT (Rice, Tebonnet) [3]; [6]) | Herbicidal rating ORYSAT (rice tolerance) (ORYSAT (Rice, Tebonnet) [3]; [9]) | Herbicidal rating ORYSAT (rice tolerance) (ORYSAT (Rice, Tebonnet) [5]; [10]) | Herbicidal rating ORYSAT (rice tolerance) (ORYSAT (Rice, Tebonnet) [5]; [13])

CCOC(=O)COc1ccccc1CC1S/C(=N/c2cc(-n3c(=O)cc(C(F)(F)F)n(C)c3=O)c(F)cc2Cl)N(CC(=O)OCC)C1=O (stereo not drawn) [Compound 42, 2-{{2-Chloro-5-[3,6-dihydro-3-methyl-2,6-dioxo-4-(trifluoromethyl)-1(2H)-pyrimidinyl]-4-fluoro-phenyl}imino}-5-(o-hydroxybenzyl)-4-oxo-3-thiazolidineacetic acid, ethyl ester, ester with ethyl glycolate]
0.0: Herbicidal rating CYPSE (CYPSE (Flatsedge); 0.0313 kg/ha) | Herbicidal rating CYPSE (CYPSE (Flatsedge); 0.0625 kg/ha) | Herbicidal rating CYPSE (CYPSE (Flatsedge); 0.1250 kg/ha) | Herbicidal rating CYPSE (CYPSE (Flatsedge); 0.2500 kg/ha) | Preemergence herbicidal rating CHEAL ([2]; rate 0.0313 kg/ha) | Herbicidal rating ORYSAT (rice tolerance) (ORYSAT (Rice, Tebonnet) [3]; [6]) | Herbicidal rating ORYSAT (rice tolerance) (ORYSAT (Rice, Tebonnet) [3]; [7]) | Herbicidal rating ORYSAT (rice tolerance) (ORYSAT (Rice, Tebonnet) [3]; [8]) | Herbicidal rating ORYSAT (rice tolerance) (ORYSAT (Rice, Tebonnet) [3]; [9]) | Preemergence herbicidal rating ORYSAT (ORYSAT (Rice, Tebonnet) [4]; rate 0.0313 kg/ha) | Preemergence herbicidal rating ORYSAT (ORYSAT (Rice, Tebonnet) [4]; rate 0.0625 kg/ha) | Preemergence herbicidal rating ORYSAT (ORYSAT (Rice, Tebonnet) [4]; rate 0.1250 kg/ha) | Preemergence herbicidal rating ORYSAT (ORYSAT (Rice, Tebonnet) [4]; rate 0.2500 kg/ha) | Herbicidal rating ORYSAT (rice tolerance) (ORYSAT (Rice, Tebonnet) [5]; [10]) | Herbicidal rating ORYSAT (rice tolerance) (ORYSAT (Rice, Tebonnet) [5]; [11]) | Herbicidal rating ORYSAT (rice tolerance) (ORYSAT (Rice, Tebonnet) [5]; [12]) | Herbicidal rating ORYSAT (rice tolerance) (ORYSAT (Rice, Tebonnet) [5]; [13])
9.0: Preemergence herbicidal rating CHEAL ([2]; rate 0.2500 kg/ha) | Herbicidal rating MOOVA (MOOVA (Monochoria); rate 0.0625 kg/ha) | Herbicidal rating MOOVA (MOOVA (Monochoria); rate 0.1250 kg/ha) | Herbicidal rating MOOVA (MOOVA (Monochoria); rate 0.2500 kg/ha)
1.0: Preemergence herbicidal rating CHEAL ([2]; rate 0.0625 kg/ha) | Postemergence herbicidal rating ECHCG (ECHCG (Barnyardgrass); Rate 0.0158 kg/ha)
4.0: Postemergence herbicidal rating ECHCG (ECHCG (Barnyardgrass); Rate 0.0630 kg/ha)
6.0: Herbicidal rating ECHORC ([1]; 0.2500 kg/ha)
3.0: Preemergence herbicidal rating CHEAL ([2]; rate 0.1250 kg/ha)
2.0: Postemergence herbicidal rating ECHCG (ECHCG (Barnyardgrass); Rate 0.0315 kg/ha)
7.0: Herbicidal rating MOOVA (MOOVA (Monochoria); rate 0.0313 kg/ha)
5.0: Herbicidal rating ECHORC ([1]; 0.0313 kg/ha) | Herbicidal rating ECHORC ([1]; 0.0625 kg/ha) | Herbicidal rating ECHORC ([1]; 0.1250 kg/ha)

Cn1c(C(F)(F)F)cc(=O)n(-c2cc(N=C3SCC(=O)N3CCC(=O)O)c(Cl)cc2F)c1=O [Compound 31, 2-{{2-Chloro-5-[3,6-dihydro-3-methyl-2,6-dioxo-4-(trifluoromethyl)-1(2H)-pyrimidinyl]-4-fluoro-phenyl}imino}-4-oxo-3-thiazolidinepropionic acid]
1.0: Herbicidal rating ECHORC ([1]; 0.0625 kg/ha)
5.0: Herbicidal rating ECHORC ([1]; 0.2500 kg/ha) | Postemergence herbicidal rating ECHCG (ECHCG (Barnyardgrass); Rate 0.0630 kg/ha)
9.0: Preemergence herbicidal rating CHEAL ([2]; rate 0.1250 kg/ha) | Preemergence herbicidal rating CHEAL ([2]; rate 0.2500 kg/ha)
2.5: Herbicidal rating MOOVA (MOOVA (Monochoria); rate 0.2500 kg/ha)
2.0: Herbicidal rating ECHORC ([1]; 0.1250 kg/ha) | Preemergence herbicidal rating ORYSAT (ORYSAT (Rice, Tebonnet) [4]; rate 0.1250 kg/ha)
6.0: Preemergence herbicidal rating ORYSAT (ORYSAT (Rice, Tebonnet) [4]; rate 0.2500 kg/ha)
0.0: Herbicidal rating CYPSE (CYPSE (Flatsedge); 0.0625 kg/ha) | Herbicidal rating CYPSE (CYPSE (Flatsedge); 0.1250 kg/ha) | Herbicidal rating CYPSE (CYPSE (Flatsedge); 0.2500 kg/ha) | Preemergence herbicidal rating CHEAL ([2]; rate 0.0625 kg/ha) | Herbicidal rating ORYSAT (rice tolerance) (ORYSAT (Rice, Tebonnet) [3]; in vivo) | Preemergence herbicidal rating ORYSAT (ORYSAT (Rice, Tebonnet) [4]; rate 0.0625 kg/ha) | Herbicidal rating ORYSAT (rice tolerance) (ORYSAT (Rice, Tebonnet) [5]; in vivo) | Herbicidal rating MOOVA (MOOVA (Monochoria); rate 0.0625 kg/ha) | Herbicidal rating MOOVA (MOOVA (Monochoria); rate 0.1250 kg/ha) | Postemergence herbicidal rating ECHCG (ECHCG (Barnyardgrass); Rate 0.0158 kg/ha) | Postemergence herbicidal rating ECHCG (ECHCG (Barnyardgrass); Rate 0.0315 kg/ha)

Cn1c(C(F)(F)F)cc(=O)n(-c2cc(N=C3SCC(=O)N3CCC(=O)O)c(Cl)cc2F)c1=O [Compound 30, 2-{{2-Chloro-5-[3,6-dihydro-3-methyl-2,6-dioxo-4-(trifluoromethyl)-1(2H)-pyrimidinyl]-4-fluorophenyl}imino}-4-oxo-3-thiazolidinepropionic acid]
1.0: Preemergence herbicidal rating ORYSAT (ORYSAT (Rice, Tebonnet) [4]; rate 0.0313 kg/ha) | Preemergence herbicidal rating ORYSAT (ORYSAT (Rice, Tebonnet) [4]; rate 0.0625 kg/ha) | Preemergence herbicidal rating ORYSAT (ORYSAT (Rice, Tebonnet) [4]; rate 0.1250 kg/ha)
9.0: Preemergence herbicidal rating CHEAL ([2]; rate 0.1250 kg/ha) | Preemergence herbicidal rating CHEAL ([2]; rate 0.2500 kg/ha)
4.0: Preemergence herbicidal rating ORYSAT (ORYSAT (Rice, Tebonnet) [4]; rate 0.2500 kg/ha)
1.5: Herbicidal rating MOOVA (MOOVA (Monochoria); rate 0.1250 kg/ha)
4.5: Herbicidal rating MOOVA (MOOVA (Monochoria); rate 0.2500 kg/ha)
0.0: Herbicidal rating CYPSE (CYPSE (Flatsedge); 0.1250 kg/ha) | Herbicidal rating CYPSE (CYPSE (Flatsedge); 0.2500 kg/ha) | Herbicidal rating ECHORC ([1]; 0.1250 kg/ha) | Herbicidal rating ECHORC ([1]; 0.2500 kg/ha) | Preemergence herbicidal rating CHEAL ([2]; rate 0.0313 kg/ha) | Preemergence herbicidal rating CHEAL ([2]; rate 0.0625 kg/ha) | Herbicidal rating ORYSAT (rice tolerance) (ORYSAT (Rice, Tebonnet) [3]; in vivo) | Herbicidal rating ORYSAT (rice tolerance) (ORYSAT (Rice, Tebonnet) [5]; in vivo) | Postemergence herbicidal rating ECHCG (ECHCG (Barnyardgrass); Rate 0.0158 kg/ha) | Postemergence herbicidal rating ECHCG (ECHCG (Barnyardgrass); Rate 0.0315 kg/ha) | Postemergence herbicidal rating ECHCG (ECHCG (Barnyardgrass); Rate 0.0630 kg/ha)
